Experimental findings from patent US20220194962A1, “AZAZINOINDAZOLE DERIVATIVE, PREPARATION METHOD THEREFOR AND USE THEREOF” (CHENGDU SCIMOUNT PHARMATECH CO., LTD., priority 2019, published 2022) are described below.

Where two headings read alike, the source gives them in different places.

The target of this assay is T1, human 5-HT3 receptor (Homo sapiens, UniProt P46098).
T1 sequence (P46098 24-478): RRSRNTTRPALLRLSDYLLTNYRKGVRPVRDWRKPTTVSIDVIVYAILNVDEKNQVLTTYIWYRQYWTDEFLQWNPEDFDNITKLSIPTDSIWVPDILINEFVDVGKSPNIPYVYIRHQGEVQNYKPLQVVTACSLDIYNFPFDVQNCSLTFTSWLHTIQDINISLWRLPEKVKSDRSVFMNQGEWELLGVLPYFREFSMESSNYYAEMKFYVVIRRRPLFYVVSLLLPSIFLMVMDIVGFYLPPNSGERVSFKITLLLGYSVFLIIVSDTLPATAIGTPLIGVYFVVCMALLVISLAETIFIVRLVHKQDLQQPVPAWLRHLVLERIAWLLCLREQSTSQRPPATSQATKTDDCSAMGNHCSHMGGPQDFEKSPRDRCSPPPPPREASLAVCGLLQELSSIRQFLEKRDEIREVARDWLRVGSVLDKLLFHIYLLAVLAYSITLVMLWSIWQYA
Put plainly: Affinity for human 5-HT3 receptor by scintillation proximity assay (SPA), [9-methyl-3H]BRL-43694 competition. The format is binding. The procedure: The relative affinity of the compound to human 5-HT3 receptor was detected by scintillation proximity assay (SPA). The specific procedures were as follows: the test compound was diluted to 10 mM with 100% DMSO, and then subjected to 10× gradient dilution with 100% DMSO in a 96-well plate, and each of the resultant solution was further diluted with the test buffer to provide 4× test concentration. The sample, 10 nM of [9-methyl-3H]BRL-43694, 3 μg of human 5-HT3 receptor membrane, and 0.5 mg/mL of SPA beads were incubated in 50 mM Tris-HCl (pH 7.5, 3 mM MgCl2, 1 mM EDTA and 10% DMSO), with a final volume of 0.2 mL. By successively adding 50 μL of competitive test compound or buffer, SPA beads, radioactive ligands and 5-HT3 receptor membrane, the binding reaction was performed in the wells of PicoPlates-96 well plate. After it was stirred and incubated overnight at room temperature, the plate was centrifuged at 1500 rpm for 15 min, and then incubated in dark for 30 min. Finally, the 5-min radioactivity was read in the TopCount microplate counter. Total binding control only contained the above buffer used to dilute the test compound, while the nonspecific binding was determined at the presence of 30 μM MDL-72222, and thus the specific binding was deduced by the total binding control minus the nonspecific binding. All experiments were carried out by ten concentrations of competitive ligand, and each group was established multiple holes. ALB-137391 was used as positive control.
ALB-137391 was a 5-HT3 receptor partial agonist, and provided by AMRI company, USA, with a production batch number of 1631-B-R0-01-43-01. The structure was as follows:
The half inhibitory concentration (IC50) was determined from the specific binding data by using XLfit4.1 curve fitting software of IDBS Ltd.
Inhibition constant Ki=IC50/(1+(L/KD)), wherein L=the concentration of radioactive ligands in the test, KD=the affinity of radioactive ligands to receptors.
A general note: SPA uses beads or plates that emit light when radiolabelled molecules are held near them.

With `O=C1c2cccc3[nH]nc(c23)CCN1[C@@H]1CN2CCC1CC2` [ALB-137391, reference compound], the IC50 (commonly the concentration that gives 50% inhibition) is 4.48 nM; the Ki – broadly, the dissociation constant of the complex between target and ligand, obtained from inhibition or displacement – is 0.81 nM.

On to `O=C1c2ccc(Br)c3[nH]nc(c23)CCN1[C@@H]1CN2CCC1CC2` [Compound 10, (S)-3-bromo-7-(quinuclidin-3-yl)-2,7,8,9-tetrahydro-6H-azepino[5,4,3-cd]indazole-6-one], for which the IC50 is 34.2 nM and the Ki amounted to 6.2 nM. For the same compound, the “affinity to human 5-HT3 receptor (in words)” value (“affinity … (in words)” below) (summary of Table 1) was “strong affinity”.

Turning to `N#Cc1ccc2c3c(n[nH]c13)CCN([C@@H]1CN3CCC1CC3)C2=O` [Compound 11, (S)-3-cyano-7-(quinuclidin-3-yl)-2,7,8,9-tetrahydro-6H-azepino[5,4,3-cd]indazole-6-one], the affinity corresponds to a Ki of 65.1 nM. The IC50 (human 5-HT3 receptor membrane, 10 nM [9-methyl-3H]BRL-43694, SPA, overnight at room temperature, read-out: IC50) came to 359 nM.

`O=C1c2ccc(O)c3[nH]nc(c23)CCN1[C@@H]1CN2CCC1CC2` [Compound 12, (S)-3-hydroxyl-7-(quinuclidin-3-yl)-2,7,8,9-tetrahydro-6H-azepino[5,4,3-cd]indazole-6-one] came in with an IC50 of 14 nM and a Ki of 2.53 nM. For the same compound, the “affinity … (in words)” value (summary of Table 1) is “strong affinity”.

In the case of `[2H]c1ccc2c3c(n[nH]c13)CCN([C@@H]1CN3CCC1CC3)C2=O` [Compound 13, (S)-3-deutero-7-(quinuclidin-3-yl)-2,7,8,9-tetrahydro-6H-azepino[5,4,3-cd]indazole-6-one], the half-maximal inhibitory concentration (IC50) worked out at 3.31 nM and the Ki was 0.6 nM. In addition, for the setting “summary of Table 1”, the “affinity and inhibitory effect on 5-HT3 receptor compared with positive control ALB-137391” value is “even better than that of positive control ALB-137391”; the “affinity … (in words)” value is listed as “strong affinity”.

`O=C1c2ccc(F)c3[nH]nc(c23)CCN1[C@@H]1CN2CCC1CC2` [Compound 14, (S)-3-fluoro-7-(quinuclidin-3-yl)-2,7,8,9-tetrahydro-6H-azepino[5,4,3-cd]indazole-6-one] showed a half-maximal inhibitory concentration (IC50) of 74 nM and an inhibitory constant (Ki) of 13.4 nM. Further, the “affinity … (in words)” value (summary of Table 1) was “strong affinity”.

In turn, `O=C1c2ccc(Cl)c3[nH]nc(c23)CCN1[C@@H]1CN2CCC1CC2` [Compound 15, (S)-3-chloro-7-(quinuclidin-3-yl)-2,7,8,9-tetrahydro-6H-azepino[5,4,3-cd]indazole-6-one] showed an IC50 of 47.1 nM and an inhibition constant (Ki) of 8.53 nM. The “affinity … (in words)” value (summary of Table 1) was “strong affinity”.
